The structures appear in SMILES notation. Converted amounts (≈) assume the structure as drawn.

The record followed here is ChEMBL document CHEMBL1147326, “Goniotriol from Goniothalamus giganteus” (J Nat Prod, 1989).

Series [1] deals with Agrobacterium tumefaciens. Put plainly: Antitumor activity against Agrobacterium tumefaciens-induced crown gall tumors in potato tuber by potato disk test. In kind it is functional.
The test system of the next series is HT-29. Put plainly: Cytotoxicity against human HT-29 cells. As to conditions: read-out: ED50 (the source's name). In kind it is functional.
Another series relates to A549. Put plainly: Cytotoxicity against human A549 cells. In kind it is functional. Conditions: read-out: ED50 (the source's name).
The next series deals with MCF7. Nature of the series: Cytotoxicity against human MCF7 cells. In kind it is functional. Conditions: read-out: ED50 (the source's name).
The subject of a further series is Artemia. Nature of the series: Toxicity in brine shrimp. Conditions: in vivo. It is filed as organism-based.

Take `O=C1C=C[C@H](O)[C@H]([C@H](O)[C@H](O)c2ccccc2)O1` [GONIOTRIOL]: the “inhibition (INH)” value in series [1] was 38%. Moreover, the results for the EC50 in the series on HT-29, in the series with A549 and in the series on MCF7 were greater than 10 µg/mL, greater than 10 µg/mL and 5.9 µg/mL (≈ 23.6 µM), respectively. Besides, the 50% lethal concentration (LC50) – broadly, the concentration that kills 50% of the test population – with Artemia amounted to 269 ppm.
